Laboratory results as given in PMC3561128, “Preclinical evaluation of carbon-11 and fluorine-18 sulfonamide derivatives for in vivo radiolabeling of erythrocytes” (EJNMMI Research, 2013).
“And” between values parts separate entries of the source, which are not always exact repeats. Equal entries are not always repeated.

What was measured:
[1] = Biodistribution studies in NMRI mice; assay type: in vivo; conditions: i.v.; for Percentage of ID, blood: blood mass assumed 7% of body mass
Procedure: The biodistribution studies were performed in wild-type NMRI mice with body weights ranging from 30 to 40 g. Mice were intravenously injected with 0.1 MBq of ^18F]-(3) or ^18F]-(5) and 5.5 MBq of ^11C]-(4) or ^11C]-(6) under anesthesia (2% isoflurane in O2 at a flow rate of 1 L/min). The animals were killed by decapitation at 2 min or 60 min p.i. (n = 4/time point for ^18F]-(3), ^11C]-(4), and ^11C]-(6); n = 6 for ^18F]-(5)). Blood was collected, and all major organs were dissected and collected in tarred tubes and were weighed. The radioactivity in each organ was counted using an automated gamma counter, corrected for background radioactivity and expressed as follows: percentage of the injected dose (% ID) or as standardized uptake value (SUV) (SUV = (Counts in tissue per gram of tissue) / (Injected counts per total body mass (g)). For the calculation of total radioactivity in the blood, blood mass was assumed to be 7% of the body mass.

[2] = Log D (1-octanol/phosphate buffer pH 7.4), shake flask method; assay type: physicochemical
Procedure: Determination of the distribution coefficient (log D1-octanol/phosphate buffer pH 7.4), was carried out by a shake flask method. An aliquot (25 μL) of the tracer agents ^18F]-(3), ^11C]-(4), ^18F]-(5), or ^11C]-(6) (185 to 555 kBq/mL) was added to a polypropylene tube (5 mL; Sarstedt, Nümbrecht, Germany) containing 2 mL of 0.025 M sodium phosphate buffer pH 7.4 and 2 mL of 1-octanol. The tube was vortexed for 2 min at room temperature followed by centrifugation at 3,000 rpm for 10 min (Eppendorf centrifuge 5810, Eppendorf, Westbury, NY, USA). Aliquots of 50 μL of the 1-octanol phase and 500 μL of the phosphate buffer phase were pipetted into separate tared Eppendorf tubes with adequate care to avoid cross contamination between the two phases. The samples were weighed, and radioactivity was quantified using an automated gamma counter. The experiments were carried out sixfold.

hCA II = hCA II (Homo sapiens, UniProt P00918); assay: CA-catalyzed CO2 hydration, stopped-flow inhibition assay; assay type: biochemical; conditions: human (cloned) isozyme; CO2 hydration reaction at 20°C; n = 3
Procedure: (§1) Phenol red (0.2 mM) was used as indicator, working at the absorbance maximum of 557 nm, with 10 mM Hepes as buffer (pH 7.5) and 0.1 M Na2SO4 (for maintaining constant ionic strength) at 25°C following the CA-catalyzed CO2 hydration reaction for a period of 10 to 100 s (the uncatalyzed reaction needs around 60 to 100 s under assay conditions, whereas the catalyzed reactions take around 6 to 10 s). The CO2 concentrations ranged from 1.7 to 17 mM for the determination of kinetic parameters. Each compound was tested in the concentration range between 0.01 nM to 100 μM. The uncatalyzed rates were determined in the same manner and subtracted from the total observed rates. Stock solutions of the compounds (0.1 mM) were prepared in distilled water with 10% to 20% (v/v) DMSO (which is non-inhibitory at these concentrations), and dilutions up to 0.01 nM were made with distilled water. Inhibitor and enzyme solutions were preincubated together for 15 min at room temperature prior to the assay, in order to allow the formation of enzyme-inhibitor complex. The inhibition constants were obtained by nonlinear least square methods using PRISM 3 (GraphPad Software, La Jolla, CA, USA), and they represent the mean from at least three different determinations.

hCA I = hCA I (Homo sapiens, UniProt P00915); assay: as above; assay type: biochemical; conditions: human (cloned) isozyme; CO2 hydration reaction at 20°C; n = 3
hCA I, sequence (P00915 whole entry): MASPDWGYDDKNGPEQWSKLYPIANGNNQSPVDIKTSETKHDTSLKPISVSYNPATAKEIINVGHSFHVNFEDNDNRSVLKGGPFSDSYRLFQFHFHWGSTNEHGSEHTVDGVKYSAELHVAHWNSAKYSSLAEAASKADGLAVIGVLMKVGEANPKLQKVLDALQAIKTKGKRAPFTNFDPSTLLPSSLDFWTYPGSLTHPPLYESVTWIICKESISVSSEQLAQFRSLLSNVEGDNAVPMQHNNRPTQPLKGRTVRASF
Procedure: as §1

Question: Which “Percentage of ID, brain” value ([1]; 2 min p.i.) does the source give for [11CH3]Oc1ccc(C(=O)NCCc2ccc(S(N)(=O)=O)cc2)cc1 [[^11C]-(4), 4-[^11C]methoxybenzoyl aminoethylbenzenesulfonamide] here?
Answer: The value was 0.2 ± 0.0 % ID.

Question: And the “Percentage of ID, carcass” value ([1]; 2 min p.i.)?
Answer: The value was 17.6 ± 1.5 % ID.

Question: What about the “Percentage of ID, heart” value ([1]; 2 min p.i.) of the same compound?
Answer: Its value is 0.5 ± 0.1 % ID.

Question: And the “Percentage of ID, intestines” value ([1]; 2 min p.i.)?
Answer: The value was 3.6 ± 1.3 % ID.

Question: What about the “Percentage of ID, kidneys” value ([1]; 2 min p.i.) of the same compound?
Answer: The value was 8.1 ± 1.3 % ID.

Question: And the “Percentage of ID, liver” value ([1]; 2 min p.i.)?
Answer: Its value is 8.4 ± 0.7 % ID.

Question: And the “Percentage of ID, lungs” value ([1]; 2 min p.i.)?
Answer: The value was 4.9 ± 2.5 % ID.

Question: What about the “Percentage of ID, spleen + pancreas” value ([1]; 2 min p.i.) of the same compound?
Answer: The value was 0.6 ± 0.1 % ID.

Question: What about the “Percentage of ID, stomach” value ([1]; 2 min p.i.) of the same compound?
Answer: Its value is 0.7 ± 0.1 % ID.

Question: And the “Percentage of ID, urine” value ([1]; 2 min p.i.)?
Answer: Its value is 0.4 ± 0.1 % ID.

Question: What about the “SUV, blood” value ([1]; 2 min p.i.) of the same compound?
Answer: Its value is 12.9 ± 0.8.

Question: And the “SUV, brain” value ([1]; 2 min p.i.)?
Answer: Its value is 0.2 ± 0.0.

Question: And the “SUV, heart” value ([1]; 2 min p.i.)?
Answer: Its value is 1.2 ± 0.2.

Question: What about the “SUV, kidneys” value ([1]; 2 min p.i.) of the same compound?
Answer: The value was 4.3 ± 0.7.

Question: What about the “SUV, liver” value ([1]; 2 min p.i.) of the same compound?
Answer: The value was 1.5 ± 0.2.

Question: And the “SUV, lungs” value ([1]; 2 min p.i.)?
Answer: Its value is 6.0 ± 1.6.

Question: And the “SUV, spleen” value ([1]; 2 min p.i.)?
Answer: The value was 0.9 ± 0.1.

Question: And the “Percentage of ID, blood” value ([1]; 2 min p.i.)?
Answer: The value was 90.5 ± 5.9 % ID.

Question: And the “Percentage of ID, brain” value ([1]; 60 min p.i.)?
Answer: Its value is 0.3 ± 0.0 % ID.

Question: And the “Percentage of ID, carcass” value ([1]; 60 min p.i.)?
Answer: The value was 21.2 ± 2.8 % ID.

Question: And the “Percentage of ID, heart” value ([1]; 60 min p.i.)?
Answer: Its value is 0.5 ± 0.1 % ID.

Question: What about the “Percentage of ID, intestines” value ([1]; 60 min p.i.) of the same compound?
Answer: The value was 12.4 ± 0.8 % ID.

Question: What about the “Percentage of ID, kidneys” value ([1]; 60 min p.i.) of the same compound?
Answer: The value was 4.1 ± 0.3 % ID.

Question: And the “Percentage of ID, liver” value ([1]; 60 min p.i.)?
Answer: Its value is 9.2 ± 1.1 % ID.

Question: And the “Percentage of ID, lungs” value ([1]; 60 min p.i.)?
Answer: Its value is 4.2 ± 1.1 % ID.

Question: And the “Percentage of ID, spleen + pancreas” value ([1]; 60 min p.i.)?
Answer: The value was 0.8 ± 0.1 % ID.

Question: What about the “Percentage of ID, stomach” value ([1]; 60 min p.i.) of the same compound?
Answer: The value was 2.6 ± 0.3 % ID.

Question: What about the “Percentage of ID, urine” value ([1]; 60 min p.i.) of the same compound?
Answer: Its value is 4.4 ± 2.7 % ID.

Question: What about the “SUV, blood” value ([1]; 60 min p.i.) of the same compound?
Answer: The value was 10.4 ± 1.1.

Question: What about the “SUV, brain” value ([1]; 60 min p.i.) of the same compound?
Answer: Its value is 0.2 ± 0.0.

Question: And the “SUV, heart” value ([1]; 60 min p.i.)?
Answer: The value was 1.0 ± 0.3.

Question: What about the “SUV, kidneys” value ([1]; 60 min p.i.) of the same compound?
Answer: The value was 2.5 ± 0.2.

Question: And the “SUV, liver” value ([1]; 60 min p.i.)?
Answer: Its value is 1.9 ± 0.3.

Question: What about the “SUV, lungs” value ([1]; 60 min p.i.) of the same compound?
Answer: The value was 4.7 ± 0.7.

Question: What about the “SUV, spleen” value ([1]; 60 min p.i.) of the same compound?
Answer: Its value is 1.1 ± 0.2.

Question: What about the “Percentage of ID, blood” value ([1]; 60 min p.i.) of the same compound?
Answer: Its value is 72.5 ± 7.6 % ID.

Question: For NS(=O)(=O)c1ccc(CCNC(=O)c2ccc(OCCF)cc2)cc1 [(3)], which logD [2] is on record?
Answer: Its logD is 1.13.

Question: What about the Ki (hCA II) of the same compound?
Answer: The Ki was 8 nM.

Question: What about the Ki (hCA I) of the same compound?
Answer: Its Ki is 96 nM.

Question: With NS(=O)(=O)c1ccc(CCNC(=O)c2ccc(OCC[18F])cc2)cc1 [[^18F]-(3), 4-(2-[^18F]fluoroethoxy)benzoyl aminoethylbenzenesulfonamide] as the compound, how does the Ki (hCA II) read?
Answer: Its Ki is 8 nM.

Question: And the “Percentage of ID, brain” value ([1]; 2 min p.i.)?
Answer: Its value is 0.2 ± 0.0 % ID.

Question: And the “Percentage of ID, carcass” value ([1]; 2 min p.i.)?
Answer: Its value is 18.10 ± 2.32 % ID.

Question: And the “Percentage of ID, heart” value ([1]; 2 min p.i.)?
Answer: The value was 0.8 ± 0.0 % ID.

Question: And the “Percentage of ID, intestines” value ([1]; 2 min p.i.)?
Answer: The value was 5.9 ± 0.8 % ID.

Question: What about the “Percentage of ID, kidneys” value ([1]; 2 min p.i.) of the same compound?
Answer: Its value is 10.6 ± 0.8 % ID.

Question: And the “Percentage of ID, liver” value ([1]; 2 min p.i.)?
Answer: Its value is 15.8 ± 1.5 % ID.

Question: And the “Percentage of ID, lungs” value ([1]; 2 min p.i.)?
Answer: Its value is 2.3 ± 0.5 % ID.

Question: What about the “Percentage of ID, spleen + pancreas” value ([1]; 2 min p.i.) of the same compound?
Answer: The value was 1.3 ± 0.2 % ID.

Question: And the “Percentage of ID, stomach” value ([1]; 2 min p.i.)?
Answer: Its value is 0.7 ± 0.1 % ID.

Question: What about the “Percentage of ID, urine” value ([1]; 2 min p.i.) of the same compound?
Answer: Its value is 0.2 ± 0.1 % ID.

Question: What about the “SUV, blood” value ([1]; 2 min p.i.) of the same compound?
Answer: Its value is 10.1 ± 0.6.

Question: And the “SUV, brain” value ([1]; 2 min p.i.)?
Answer: Its value is 0.2 ± 0.0.

Question: And the “SUV, heart” value ([1]; 2 min p.i.)?
Answer: Its value is 2.3 ± 1.3.

Question: What about the “SUV, kidneys” value ([1]; 2 min p.i.) of the same compound?
Answer: Its value is 5.6 ± 0.6.

Question: And the “SUV, liver” value ([1]; 2 min p.i.)?
Answer: The value was 3.2 ± 0.2.

Question: What about the “SUV, lungs” value ([1]; 2 min p.i.) of the same compound?
Answer: The value was 3.5 ± 1.0.

Question: And the “SUV, spleen” value ([1]; 2 min p.i.)?
Answer: Its value is 1.6 ± 0.2.

Question: What about the “Percentage of ID, blood” value ([1]; 2 min p.i.) of the same compound?
Answer: The value was 71.0 ± 4.3 % ID.

Question: What about the “Percentage of ID, brain” value ([1]; 60 min p.i.) of the same compound?
Answer: Its value is 0.2 ± 0.1 % ID.

Question: And the “Percentage of ID, carcass” value ([1]; 60 min p.i.)?
Answer: The value was 31.35 ± 3.67 % ID.

Question: And the “Percentage of ID, heart” value ([1]; 60 min p.i.)?
Answer: The value was 0.2 ± 0.2 % ID.

Question: What about the “Percentage of ID, intestines” value ([1]; 60 min p.i.) of the same compound?
Answer: Its value is 18.6 ± 1.0 % ID.

Question: And the “Percentage of ID, kidneys” value ([1]; 60 min p.i.)?
Answer: Its value is 2.8 ± 0.1 % ID.

Question: What about the “Percentage of ID, liver” value ([1]; 60 min p.i.) of the same compound?
Answer: Its value is 8.3 ± 1.2 % ID.

Question: What about the “Percentage of ID, lungs” value ([1]; 60 min p.i.) of the same compound?
Answer: The value was 0.7 ± 0.3 % ID.

Question: And the “Percentage of ID, spleen + pancreas” value ([1]; 60 min p.i.)?
Answer: The value was 0.9 ± 0.3 % ID.

Question: What about the “Percentage of ID, stomach” value ([1]; 60 min p.i.) of the same compound?
Answer: Its value is 1.9 ± 1.3 % ID.

Question: And the “SUV, blood” value ([1]; 60 min p.i.)?
Answer: Its value is 4.5 ± 0.3.

Question: What about the “SUV, brain” value ([1]; 60 min p.i.) of the same compound?
Answer: The value was 0.1 ± 0.0.

Question: And the “SUV, heart” value ([1]; 60 min p.i.)?
Answer: The value was 0.5 ± 0.4.

Question: And the “SUV, kidneys” value ([1]; 60 min p.i.)?
Answer: The value was 1.6 ± 0.1.

Question: And the “SUV, liver” value ([1]; 60 min p.i.)?
Answer: Its value is 1.7 ± 0.3.

Question: What about the “SUV, lungs” value ([1]; 60 min p.i.) of the same compound?
Answer: The value was 1.1 ± 0.4.

Question: And the “SUV, spleen” value ([1]; 60 min p.i.)?
Answer: Its value is 1.1 ± 0.3.

Question: What about the “Percentage of ID, blood” value ([1]; 60 min p.i.) of the same compound?
Answer: The value was 32 % ID and 31.7 ± 2.1 % ID.
